In article PMC10305115, “Development of a Minimalistic Physiologically Based Pharmacokinetic (mPBPK) Model for the Preclinical Development of Spectinamide Antibiotics” (Pharmaceutics, 2023):
Like-named read-outs stand apart in the source and are kept apart here.

Experiments:
[1] = Fraction unbound in epithelial lining fluid calculated by Poulin and Theil equation, mouse; settings: epithelial lining fluid (calculated), calculated from fu in plasma and albumin ratio plasma/ELF, read-out: fuELF fraction unbound in epithelial lining fluid
Procedure: (§1) For intravenous administration, the bolus dose was assumed to be mixed instantaneously into the venous blood. For subcutaneous administration, the dose was administered as an external compartment, absorbed into the venous compartment via a first-order absorption rate constant and a bioavailability component. For intrapulmonary aerosol administration, we have modified the lung tissue by adding the epithelial lining fluid (ELF) sub-compartment, as shown in Figure 2. The physiological volume of the ELF sub-compartment was obtained from the literature. The dose was administered as an external compartment, absorbed into the ELF compartment via a first-order absorption rate constant and a bioavailability component. The compound was assumed to be bound to the ELF proteins, and only the unbound fraction was distributed to the other sub-compartments of the lungs and ultimately to the systemic circulation. The fraction unbound in ELF was calculated from the fraction unbound in plasma and the albumin ratio between plasma and ELF using the equation described by Poulin and Theil.

[2] = Fraction unbound in epithelial lining fluid calculated by Poulin and Theil equation, rat; settings: epithelial lining fluid (calculated), calculated from fu in plasma and albumin ratio plasma/ELF, read-out: fuELF fraction unbound in epithelial lining fluid
Procedure: as §1

[3] = Plasma protein binding by equilibrium dialysis (RED device), mouse plasma; type: in vitro ADME, BALB/c mice; settings: BALB/c; Mouse plasma, 0.5 and 5 mg/L, 37 °C, 4 h; read-out: fuPlasma fraction unbound in plasma
Procedure: (§2) Plasma protein binding was measured by equilibrium dialysis using a RED device (8 kDa molecular cutoff; Thermo Scientific, Rockford, IL, USA) containing plasma and buffer chambers for dialysis and a base plate. Two concentrations (0.5 and 5 mg/L) of 1599 and 1810 were prepared in mouse plasma from BALB/c mice and rat plasma from Sprague-Dawley rats, and an aliquot of 300 µL was added in the plasma chamber in duplicate. A 500 µL aliquot of PBS was added in the buffer chamber for dialysis. Then, the base plate was covered with sealing tape and incubated at 37 °C at approximately 100 rpm on an orbital shaker for 4 h to achieve equilibrium. After incubation, 50 µL of each sample was pipetted from the plasma and buffer chambers into separate micro-centrifuge tubes. A total of 50 µL of plasma was added to the buffer samples and an equal volume of PBS to the collected plasma samples and vortexed. Samples were processed by protein precipitation and analyzed for bound and unbound drug concentrations by liquid chromatography-tandem mass spectrometry (LC-MS/MS). Ranitidine (0.5 and 5 mg/L) was included as a positive control. The fraction of compound unbound to plasma proteins (fu) was calculated from the measured concentrations in the plasma and buffer chambers using the following equation:(1) fu=1−C(Plasma Chamber)−C(Buffer Chamber)/C(Plasma Chamber)

plasma proteins = assay: as above; type: in vitro ADME, BALB/c mice; settings: mouse and rat
Procedure: as §2

[4] = Subcutaneous PBPK model predictions vs observed plasma concentrations in Mtb infected mice; type: in vivo, BALB/c mice; settings: SC dose-ranging and dose-fractionation studies
[5] = Minimalistic PBPK model, mouse (fitting and simulation)
[6] = cited from earlier work; for AUCinf Liver Observed / AUCinf Lung Observed / AUCinf Observed / AUCinf Spleen Observed: healthy mice; for AUCinf Observed: plasma
[7] = Plasma protein binding by equilibrium dialysis (RED device), rat plasma; type: in vitro ADME, Sprague-Dawley rats; settings: Sprague-Dawley, 0.5 and 5 mg/L, 37 °C, read-out: fuPlasma fraction unbound in plasma
Procedure: as §2

[8] = Integrated mouse and rat PBPK model, inter-animal variability; settings: Intravenous Estimate (%RSE); simultaneous fit of mouse and rat plasma and tissue data
in vivo = settings: mouse
[9] = Parallel artificial membrane permeability assay (PAMPA); type: in vitro ADME; settings: passive permeability could not be determined
[10] = Pharmacokinetic studies in healthy rats; type: in vivo; settings: male, Sprague-Dawley, rat, plasma, IV SD 10 mg/kg, generated in this study, read-out: AUCinf Observed
Procedure: Urine samples were collected at predetermined time intervals (0–6, 6–10, 10–24, 24–48 h) up to 48 h after dosing, volumes were recorded, and samples were processed by protein precipitation and analyzed by LC-MS/MS. The fraction of drug excreted unchanged (fe) in urine at each time interval and a cumulative fe were calculated.
An additional single dose intravenous study of spectinamide 1599 with destructive sampling was performed to obtain the tissue PK profiles in rats. In this study, groups of four rats (two male and two female) were euthanized either at 15 min or at 4 h after dosing, and blood, lung, liver, spleen, and kidneys were collected. For tissue samples, the tissues were weighed and homogenized in four volumes of phosphate buffered saline (1× PBS) and stored at −70 °C until LC-MS/MS analysis.
Sample preparation was performed by protein precipitation using methanol. […]
An API 4500 triple quadruple mass spectrometer (Applied Biosystems, Foster City, CA, USA) equipped with a turbospray ion source was operated in the positive ion mode. Selected reaction monitoring using precursor→product ion combinations of m/z 487.2→207.1, 418→207.1, and 365.1→333.2 was used for quantification of spectinamides 1599, 1810 and the IS spectinomycin, respectively.

[11] = Intravenous Estimate (%RSE), model fitted to IV single dose 10 mg/kg plasma and tissue data

Compound: CN[C@@H]1[C@H](O)[C@H](NC)[C@H]2O[C@]3(O)[C@H](O[C@@H]2[C@H]1O)O[C@H](C)C[C@H]3NC(=O)Cc1ccc(O)cn1 [Spectinamide 1810, 2-(5-hydroxypyridin-2-yl)-N-((2R,4R,4aS,5aR,6S,7S,8R,9S,9aR,10aS)-4a,7,9-trihydroxy-2-methyl-6,8-bis(methylamino)decahydro-2H-benzo[b]pyrano [2,3-e] [1,4]dioxin-4-yl)acetamide]
- fraction unbound [1]: 0.965
- fraction unbound [2]: 0.95
- fraction unbound at 4 h [3]: 0.693
- plasma protein binding (plasma proteins): low plasma protein binding
- difference in pharmacokinetics between healthy and infected mice [4]: no significant difference
- KC→IKidney 1st order back flux from cellular sub compartment of the kidney [5, 11]: 0.097 (45.1) 1/h
- KC→ILiver 1st order back flux from cellular sub compartment of the liver [5, 11]: 0.051 (17.2) 1/h
- KC→ILung 1st order back flux from cellular sub compartment of the lung [5, 11]: 0.076 (17.6) 1/h
- KC→ISpleen 1st order back flux from cellular sub compartment of the spleen [5, 11]: 0.013 (120) 1/h
- KC→Iothers 1st order back flux from cellular sub compartment of the other tissues [5, 11]: 7.0 × 10^−5 (0.00278) 1/h
- Ka 1st order absorption rate constant ([5]; Subcutaneous Estimate (%RSE), healthy mice): 8.26 (14.5)
- dose dependency of disposition ([6]; dose range of 10 to 400 mg/kg in mice): did not suggest any dose dependencies
- AUCinf Liver Observed ([6]; IV QD5 10 mg/kg): 51.2 µg·h/g
- AUCinf Liver Observed ([6]; IV SD 10 mg/kg): 31.6 µg·h/g
- AUCinf Lung Observed ([6]; IV QD5 10 mg/kg): 11.2 µg·h/g
- AUCinf Lung Observed ([6]; IV SD 10 mg/kg): 5.75 µg·h/g
- AUCinf Observed ([6]; IV QD5 10 mg/kg): 9450 ng·h/mL
- AUCinf Observed ([6]; IV SD 10 mg/kg): 7910 ng·h/mL
- AUCinf Observed ([6]; SC QD5 50 mg/kg): 65500 ng·h/mL
- AUCinf Observed ([6]; SC QD5 200 mg/kg): 265000 ng·h/mL
- AUCinf Observed ([6]; SC SD 46 mg/kg): 38600 ng·h/mL
- AUCinf Observed ([6]; SC SD 50 mg/kg): 67900 ng·h/mL
- AUCinf Observed ([6]; SC SD 200 mg/kg): 267000 ng·h/mL
- AUCinf Spleen Observed ([6]; IV QD5 10 mg/kg): 9.45 µg·h/g
- AUCinf Spleen Observed ([6]; IV SD 10 mg/kg): 4.29 µg·h/g
- fraction unbound at 4 h [7]: 0.607
- ω KI→COther inter-animal variability on KI→COthers [8]: 0.31 (14.7)
- half-life (in vivo): 5 min
- bioavailability (in vivo; sc): 100%
- PAMPA concentrations in the acceptor compartment [9]: below the limit of detection
- AUC(0-inf) [10]: 20800 ng·h/mL
